In patent publication US20230101747A1 (Schrödinger, Inc., priority 2019, published 2023):
Where two headings read alike, the source gives them in different places.

Experiments:
[1] = target: T1, Full length human CDC7 protein co-expressed with DBF4 (Homo sapiens, UniProt O00311); test: CDC7 kinase biochemical assay (ADP-Glo, PDKtide substrate); details: 0.1 nM CDC7/DBF4, 1 uM ATP, 10 uM PDKtide, 4 h; read-out: CDC7 ADP-Glo PDKtide IC50
T1 construct: Full length human CDC7 protein co-expressed with DBF4; purchased SignalChem (China)
T1 sequence (O00311 whole entry): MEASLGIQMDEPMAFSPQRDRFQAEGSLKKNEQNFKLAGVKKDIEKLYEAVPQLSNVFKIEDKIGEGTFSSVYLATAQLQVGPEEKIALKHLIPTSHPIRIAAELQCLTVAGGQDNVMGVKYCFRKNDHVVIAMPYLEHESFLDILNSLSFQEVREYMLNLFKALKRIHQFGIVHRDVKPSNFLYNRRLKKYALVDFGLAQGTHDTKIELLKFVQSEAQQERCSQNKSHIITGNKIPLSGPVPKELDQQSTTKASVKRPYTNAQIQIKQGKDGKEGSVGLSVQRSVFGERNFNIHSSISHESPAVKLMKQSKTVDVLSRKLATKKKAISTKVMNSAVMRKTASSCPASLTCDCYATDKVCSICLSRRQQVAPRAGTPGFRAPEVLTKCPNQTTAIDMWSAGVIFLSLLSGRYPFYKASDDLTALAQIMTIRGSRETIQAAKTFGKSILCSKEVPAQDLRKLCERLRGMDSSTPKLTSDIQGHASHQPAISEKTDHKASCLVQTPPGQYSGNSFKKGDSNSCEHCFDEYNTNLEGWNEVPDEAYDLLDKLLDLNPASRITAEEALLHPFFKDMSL
T1 sequence (Q9UBU7 whole entry partner): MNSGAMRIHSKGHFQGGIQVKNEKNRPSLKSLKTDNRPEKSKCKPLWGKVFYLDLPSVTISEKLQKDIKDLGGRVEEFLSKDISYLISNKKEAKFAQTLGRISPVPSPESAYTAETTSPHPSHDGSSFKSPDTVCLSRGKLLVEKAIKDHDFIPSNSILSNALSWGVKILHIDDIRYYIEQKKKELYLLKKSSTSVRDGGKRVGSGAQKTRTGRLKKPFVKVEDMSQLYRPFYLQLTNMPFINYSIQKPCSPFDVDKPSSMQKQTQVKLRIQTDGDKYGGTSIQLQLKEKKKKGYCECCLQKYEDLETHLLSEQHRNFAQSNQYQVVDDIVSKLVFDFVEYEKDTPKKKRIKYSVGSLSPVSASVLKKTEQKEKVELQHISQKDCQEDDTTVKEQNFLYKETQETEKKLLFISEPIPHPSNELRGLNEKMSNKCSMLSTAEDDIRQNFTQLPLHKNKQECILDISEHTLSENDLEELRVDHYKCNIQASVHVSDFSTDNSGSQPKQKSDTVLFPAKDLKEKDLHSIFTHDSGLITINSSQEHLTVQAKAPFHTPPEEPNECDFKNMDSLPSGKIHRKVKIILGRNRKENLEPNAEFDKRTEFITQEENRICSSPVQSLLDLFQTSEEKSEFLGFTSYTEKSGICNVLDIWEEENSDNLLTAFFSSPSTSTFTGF
Summary of the method: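 ADP-Glo luminescence measured ADP made over a 4 h reaction of 0.1 nM CDC7/DBF4 (full-length human) with 10 uM PDKtide and 1 uM ATP. Buffer was 40 mM Tris pH 7.5 with 20 mM MgCl2, 0.1 mg/ml BSA, 50 uM DTT. Inhibition normalized to DMSO and positive-control inhibitor wells.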

[2] = system: phosphorylation of MCM2 S53 (CDC7 substrate) in colo205 cells; test: Phosphorylated MCM2 MSD electrochemiluminescence assay; type: cell-based; details: Homo sapiens, read-out: pMCM2-S53 MSD Colo205 IC50
Procedure: Phosphorylated MCM2 MSD Electrochemiluminescence Assay
The effect of CDC7 inhibitors on cellular phosphorylation of the CDC7 substrate MCM2 was determined using the following protocol:
A total of 40,000 colo205 cells in 100 uL culture medium (1640 medium+10% Fetal bovine serum+1% Penicillin-Streptomycin) were plated in 96-well cell culture plates and allowed to attach for 6 hours. 3-fold serial dilutions of test compounds were prepared in completed PBS at 25× final concentration and 4 uL of each were added to the cells and incubated for 20 hours at 37° C., 5% CO2. Each concentration was tested in duplicate. After the 20 h incubation, cells were washed with 150 uL PBS and lysed with 40 uL MSD lysis buffer (obtained from Meso Scale Diagnostics) supplied with 1× complete ULTRA cocktail inhibitor (obtained from Roche). To detect phosphorylation of MCM2 S53, 30 μL of capture antibody solution (obtained from Abnova, catalog number H00004171-M01, 1:500) was added to each well of MULTI-ARRAY 96-well High Bind Plate, and incubated overnight. The antibody solution was removed, wells blocked with BSA solution and plates washed, followed by addition of 30 ul of cell lysate per well. After 2 h incubation, plates were washed. 30 μL of 1× detection antibody solution (obtained from Abcam, catalog number ab109133, 1:1000) was then added to each well and incubate for 1 hour. Plates were washed and 30 μL of 1× secondary antibody solution (obtained from MSD, catalog number R32AB-1, 1:5000) was added to each well and incubate for 1 hour. Plates were washed and 150 μL of 1× Read Buffer T was added to each well of the MSD plate. The electrochemiluminescence signal was measured on a MESO SECTOR S600 plate reader. The percentage of remaining phosphorylated MCM2 signal was calculated following the equation below.
HC (high control): Cells treated with DMSO Cpds: Cells treated with test compounds LC (low control): Cells treated with positive control CDC7 inhibitor

[3] = COLO 205, colo205 cells, 20 h incubation

Compound	IC50 [1]	IC50 [2, 3]	IC50 ([2]; COLO 205, 20 h)
O=C1NC[C@@H](C2CCOCC2)N2CCOc3c(-c4cn[nH]c4)sc1c32 (single isomer, unassigned) [Compound 27]	< 1 nM	256 nM	–
O=C1N[C@@H]([C@H]2CCCO2)CN2CC(F)(F)Cc3c(-c4cn[nH]c4)sc1c32 (single isomer, unassigned) [Compound 118]	< 1 nM	5 nM	–
O=C1N[C@@H](C23CCC(CC2)O3)CN2CC(F)(F)Cc3c(-c4cn[nH]c4)sc1c32 (single isomer, unassigned) [Compound 121]	< 1 nM	12 nM	–
COC[C@H]1CN2C[C@@H](F)Cc3c(-c4cn[nH]c4)sc(c32)C(=O)N1 (single isomer, unassigned) [Compound 125]	< 1 nM	12 nM	–
COC[C@H]1CN2C[C@H](F)Cc3c(-c4cn[nH]c4)sc(c32)C(=O)N1 (single isomer, unassigned) [Compound 126]	< 1 nM	902 nM	–
C[C@H]1CN2CCOc3c(-c4cn[nH]c4)sc(c32)C(=O)N1 [Compound 16, (S)-7-methyl-2-(1H-pyrazol-4-yl)-4,5,7,8-tetrahydro-3-oxa-1-thia-5a,8-diazabenzo[cd]azulen-9(6H)-one]	< 1 nM	16 nM	–
O=C1N[C@H](C2CCC2)CN2CCOc3c(-c4cn[nH]c4)sc1c32 [Compound 19, (R)-7-cyclobutyl-2-(1H-pyrazol-4-yl)-4,5,7,8-tetrahydro-3-oxa-1-thia-5a,8-diazabenzo[cd]azulen-9(6H)-one]	< 1 nM	57 nM	–
C[C@H]1CN2CCCc3c(-c4cn[nH]c4)sc(c32)C(=O)N1 [Compound 30, (S)-7-methyl-2-(1H-pyrazol-4-yl)-4,5,7,8-tetrahydro-3H-1-thia-5a,8-diazabenzo[cd]azulen-9(6H)-one]	< 1 nM	41 nM	–
O=C1N[C@@H](CO)CN2CCCc3c(-c4cn[nH]c4)sc1c32 [Compound 32, (R)-7-(hydroxymethyl)-2-(1H-pyrazol-4-yl)-4,5,7,8-tetrahydro-3H-1-thia-5a,8-diazabenzo[cd]azulen-9(6H)-one]	< 1 nM	812 nM	–
O=C1NC[C@H](CO)N2CCOc3c(-c4cn[nH]c4)sc1c32 [Compound 33, (R)-6-(hydroxymethyl)-2-(1H-pyrazol-4-yl)-4,5,7,8-tetrahydro-3-oxa-1-thia-5a,8-diazabenzo[cd]azulen-9(6H)-one]	< 1 nM	80 nM	–
O=C1NC[C@@H](COCc2ccccc2)N2CCOc3c(-c4cn[nH]c4)sc1c32 [Compound 38, (S)-6-((benzyloxy)methyl)-2-(1H-pyrazol-4-yl)-4,5,7,8-tetrahydro-3-oxa-1-thia-5a,8-diazabenzo[cd]azulen-9(6H)-one]	1 to 10 nM	1810 nM	–
O=C1N[C@H](CO)CN2CCOc3c(-c4cn[nH]c4)sc1c32 [Compound 39, (S)-7-(hydroxymethyl)-2-(1H-pyrazol-4-yl)-4,5,7,8-tetrahydro-3-oxa-1-thia-5a,8-diazabenzo[cd]azulen-9(6H)-one]	< 1 nM	265 nM	–
Cc1cnn(C[C@H]2CN3CCOc4c(-c5cn[nH]c5)sc(c43)C(=O)N2)c1 [Compound 41, (R)-7-((4-methyl-1H-pyrazol-1-yl)methyl)-2-(1H-pyrazol-4-yl)-4,5,7,8-tetrahydro-3-oxa-1-thia-5a,8-diazabenzo[cd]azulen-9(6H)-one]	< 1 nM	87 nM	–
O=C1NCCN2c3c1sc(-c1cn[nH]c1)c3OC[C@@H]2CO [Compound 49, (S)-5-(hydroxymethyl)-2-(1H-pyrazol-4-yl)-4,5,7,8-tetrahydro-3-oxa-1-thia-5a,8-diazabenzo[cd]azulen-9(6H)-one]	< 1 nM	509 nM	–
O=C1NC[C@H](CO)N2CCOc3c(-c4ccncc4)sc1c32 [Compound 50, (R)-6-(hydroxymethyl)-2-(pyridin-4-yl)-4,5,7,8-tetrahydro-3-oxa-1-thia-5a,8-diazabenzo[cd]azulen-9(6H)-one]	< 1 nM	268 nM	–
O=C1NC2(CCC2)CN2CCOc3c(-c4cn[nH]c4)sc1c32 [Compound 51, 2-(1H-pyrazol-4-yl)-4,5-dihydro-6H-3-oxa-1-thia-5a,8-diazaspiro[benzo[cd]azulene-7,1′-cyclobutan]-2,2a1(9a)-dien-9(8H)-one]	< 1 nM	–	18 nM
COC[C@@H]1CN2CCOc3c(-c4cn[nH]c4)sc(c32)C(=O)N1 [Compound 54, (S)-7-(methoxymethyl)-2-(1H-pyrazol-4-yl)-4,5,7,8-tetrahydro-3-oxa-1-thia-5a,8-diazabenzo[cd]azulen-9(6H)-one]	< 1 nM	110 nM	–
COC[C@@H]1CNC(=O)c2sc(-c3cn[nH]c3)c3c2N1CCO3 [Compound 55, (S)-6-(methoxymethyl)-2-(1H-pyrazol-4-yl)-4,5,7,8-tetrahydro-3-oxa-1-thia-5a,8-diazabenzo[cd]azulen-9(6H)-one]	< 1 nM	21 nM	–
COC1(C[C@@H]2CNC(=O)c3sc(-c4cn[nH]c4)c4c3N2CCC4)CC1 [Compound 91, (9R)-9-[(1-methoxycyclopropyl)methyl]-3-(1H-pyrazol-4-yl)-2-thia-8,11-diazatricyclo [6.4.1.0^4,13]trideca-1(13),3-dien-12-one]	< 1 nM	660 nM	–
C[C@@H]1CN2CC(F)(F)Oc3c(-c4cn[nH]c4)sc(c32)C(=O)N1 [Compound 93, (10R)-6,6-difluoro-10-methyl-3-(1H-pyrazol-4-yl)-5-oxa-2-thia-8,11-diazatricyclo [6.4.1.0^443] trideca-1(13), 3-dien-12-one]	< 1 nM	28 nM	–
O=C1N[C@H](C2CCC2)CN2CC(F)(F)Oc3c(-c4cn[nH]c4)sc1c32 [Compound 100, (R)-7-cyclobutyl-4,4-difluoro-2-(1H-pyrazol-4-yl)-4,5,7,8-tetrahydro-3-oxa-1-thia-5a,8-diazabenzo[cd]azulen-9(6H)-one]	< 1 nM	23 nM	–
O=C1N[C@@H](Cn2cccn2)CN2CC(F)(F)Cc3c(-c4cn[nH]c4)sc1c32 [Compound 102, (R)-7-((1H-pyrazol-1-yl)methyl)-4,4-difluoro-2-(1H-pyrazol-4-yl)-4,5,7,8-tetrahydro-3H-1-thia-5a,8-diazabenzo[cd]azulen-9(6H)-one]	< 1 nM	66 nM	–
COC[C@H]1CN2CC(F)(F)Cc3c(-c4cn[nH]c4)sc(c32)C(=O)N1 [Compound 103, (10R)-6,6-difluoro-10-(methoxymethyl)-3-(1H-pyrazol-4-yl)-2-thia-8,11-diazatricyclo [6.4.1.0^4,13]trideca-1(13),3-dien-12-one]	< 1 nM	15 nM	–
CC(C)(O)C[C@@H]1CNC(=O)c2sc(-c3cn[nH]c3)c3c2N1CCO3 [Compound 104, (R)-6-(2-hydroxy-2-methylpropyl)-2-(1H-pyrazol-4-yl)-4,5,7,8-tetrahydro-3-oxa-1-thia-5a,8-diazabenzo[cd]azulen-9(6H)-one]	< 1 nM	150 nM	–
COC[C@@H]1CN2CC(F)(F)Cc3c(-c4cn[nH]c4)sc(c32)C(=O)N1 [Compound 115, (S)-4,4-difluoro-7-(methoxymethyl)-2-(1H-pyrazol-4-yl)-4,5,7,8-tetrahydro-3H-1-thia-5a,8-diazabenzo[cd]azulen-9(6H)-one]	< 1 nM	218 nM	–
